Measurements as given in patent US8258127B2, “Methods for treating latent tuberculosis” (Institut National de la Sante et de la Recherche Medicale …, priority 2008, dated 2012).

Key:
[1] = biological target: T1, LdtMt1 L,D-transpeptidase (Mycobacterium tuberculosis, UniProt O53638); experiment: Inhibition of LdtMt1 L,D-transpeptidase activity by β-lactams (formation of mDap3→mDap3 cross-linked dimers, mass spectrometry); type: biochemical; settings: for blocking of the L,D-transpeptidase enzyme (summary in words): summary statement of the description
Procedure: The disaccharide-tetrapeptide containing amidated meso-diaminopimelic acid (GlcNAc-MurNAc-L-Ala^1-D-iGln^2-mesoDapNH2^3-D-Ala^4) was purified from C. jeikeium strain CIP103337 and the concentration w as determined by amino acid analysis after acid hydrolysis (Arbeloa et al., 2007, J. Biol. Chem., Vol. 279: 41546-41556; Auger et al., FEMS Microbiol. Lett., Vol. 219: 115-119). In vitro formation of muropeptide dimers was tested in 10 μL of 50 mM Tris-HCl (pH 7.5) containing 300 mM NaCl, 11 μM LdtMt1, and 280 μM disaccharide-tetrapeptide. The reaction mixture was incubated for 2 hours at 37° C., treated with ammonium hydroxide, and the resulting lactoyl-peptides were analyzed by nanoelectrospray tandem mass spectrometry using N2 as the collision gas (Arbeloa et al., 2007, Supra).
LdtMt1 (12.5 μM) was pre-incubated for 20 min at 37° C. with ampicillin (Bristol-Myers), ceftriaxone (Roche Applied Science), and imipenem (Merck Sharpe and Dhome-Chibret) in 50 mM Tris-HCl (pH 7.5) containing 300 mM NaCl (buffer A). The L,D-transpeptidation reaction was started by the addition of the disaccharide-tetrapeptide (final concentration 280 μM) and allowed to proceed for 2 hours at 37° C. The reaction products were detected by mass spectrometry (Mainardi et al., 2007, J. Biol. Chem., Vol. 282: 30414-30422).
To investigate inhibition of the L,D-transpeptidase activity of LdtMt1 by β-lactams, the formation of dimers containing mDap^3→mDap^3 cross-links was tested in the presence of various drug concentrations.

[2] = biological target: T1, LdtMt1 L,D-transpeptidase; experiment: Formation of enzyme-drug adducts between LdtMt1 and β-lactams (electrospray mass spectrometry); type: binding; settings: LdtMt1 12.5 μM, β-lactam 125 μM, 1 h at 37° C.; for Average mass Observated of LdtMt1-β-lactam adduct: ND: not detected, native protein 24,584.4
Procedure: LdtMt1 (12.5 μM) was incubated without antibiotic (left panel) or with 125 μM imipenem (right panel). Proteins and adducts were detected by electrospray mass spectrometry. Peaks at m/z 848.75 and 879.03 correspond to the [M+29H]^29+ and [M+28H]^28+ ions of the native protein, respectively (deduced average mass of 24,584.4). Peaks at m/z 859.08 and 889.65 correspond to the [M+29H]^29+ and [M+28H]^28+ ions of the LdtMt1-imipenem adduct (deduced average mass of 24,883.5).
The formation of enzyme-drug adducts was tested by incubating LdtMt1 (12.5 μM) with β-lactams (125 μM) for 1 h at 37° C. in buffer A. The reaction mixture was dialyzed against water for 30 min and the average mass of proteins and protein-β-lactam adducts was determined as described (Mainardi et al., 2007, Supra).
To gain insight into the mechanism of LdtMt1 inhibition by β-lactams, binding of the drugs to the enzyme was tested by electrospray mass spectrometry. […] Adducts matching increments of the average mass of other carbapenems, meropenem and ertapenem, were also detected (Table 2 hereunder).

[3] = LdtMt1 12.5 μM, pre-incubated 20 min at 37° C., disaccharide-tetrapeptide 280 μM, 2 hours

T1 sequence (O53638 32-251 limits assumed): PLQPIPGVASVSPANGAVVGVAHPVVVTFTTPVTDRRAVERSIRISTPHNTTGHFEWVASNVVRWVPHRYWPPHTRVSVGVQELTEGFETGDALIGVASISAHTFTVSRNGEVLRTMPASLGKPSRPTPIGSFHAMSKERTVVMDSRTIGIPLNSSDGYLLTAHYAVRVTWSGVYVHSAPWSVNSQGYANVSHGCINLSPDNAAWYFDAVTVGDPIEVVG

| Compound | blocking of the L,D-transpeptidase enzyme (summary in words) [1] | formation of adduct with LdtMt1 (in words) [2] | Average mass Observated of LdtMt1-β-lactam adduct [2] | highest tested concentration without inhibition of LdtMt1 [1, 3] [mM] | drug concentration required for full inhibition of enzyme activity [1, 3] [µM] |
| --- | --- | --- | --- | --- | --- |
| C[C@@H](O)[C@H]1C(=O)N2C(C(=O)O)=C(S[C@@H]3CN[C@H](C(=O)N(C)C)C3)[C@H](C)[C@H]12 [Meropenem, meropenem] | block the said L,D-transpeptidase enzyme | detected | 24,967.8 |  |  |
| CC1(C)S[C@@H]2[C@H](NC(=O)[C@H](N)c3ccccc3)C(=O)N2[C@H]1C(=O)O [Ampicillin, ampicillin] | inactive | No adduct was detected |  | > 5.7 |  |
| CO/N=C(\C(=O)N[C@@H]1C(=O)N2C(C(=O)O)=C(CSc3nc(=O)c(=O)[nH]n3C)CS[C@H]12)c1csc(N)n1 [Ceftriaxone, ceftriaxone] |  | No adduct was detected |  |  | 360 |
| C[C@@H](O)[C@H]1C(=O)N2C(C(=O)O)=C(S[C@@H]3CN[C@H](C(=O)Nc4cccc(C(=O)O)c4)C3)[C@H](C)[C@H]12 [Ertapenem, ertapenem] | block the said L,D-transpeptidase enzyme | detected | 25,059.9 |  |  |
